Experimental data reported in patent US6667387B1, “HCV core peptides” (priority 1992, dated 2003).

Columns and labels:
[1] = ELISA with seronegative / negative control sera (specificity); type: binding, human; details: Table 4B; negative serum
Protocol: (§1) Where peptides were to be coated directly, stock solutions of the peptides were diluted in sodium carbonate buffer, pH 9.6 and used to coat polystyrene microtiter plates at a peptide concentration of 2 to 5 micrograms per milliliter for 1 hour at 37° C.
(§2) In cases where biotinylated peptides were to be evaluated, plates were first coated with streptavidin in sodium carbonate buffer, pH 9.6 at a concentration of 3 micrograms per milliliter for 1 hour at 37° C. The plates were then washed to remove excess, unbound protein. A working solution of the biotinylated peptide at 1 microgram per milliliter in sodium carbonate buffer was then added to the wells of the microtiter plate and incubated for 1 hours at 37° C.
(§3) Once the plates had been coated with antigen, any remaining free binding sites on the plastic were blocked with casein. After washing, a dilution of the appropriate antisera, usually 1:100, was added to the wells of the plates and incubated for 1 hour at 37° C.
(§4) After washing to remove unbound material, specific antibody binding was detected by incubating the plates with goat anti-human immunoglobulin antibodies conjugated to the enzyme horseradish peroxidase. Following removal of unbound conjugate by washing, a solution containing H2O2 and 3,3′,5,5′-tetramethylbenzidine was added.
(§5) Reactions were stopped after a suitable interval by addition of sulfuric acid. […] Absorbance measurements were made at a wavelength of 450 nanometers and all data are expressed as an optical density value at this wavelength.
(§6) Unbiotinylated HCV peptide I was coated directly onto the wells of a polystyrene ELISA plate at a concentration of 3 micrograms per milliliter in sodium carbonate buffer, pH 9.6. Biotinylated HCV peptide I was bound to streptavidin-coated wells using a stock solution containing the peptide at a concentration of 1 microgram per milliliter. The resulting plates were then incubated in parallel with a panel of sera from HCV-seropositive donors. […] Two of the sera (8326 and 8244) recognize the biotinylated version of this peptide far better than the unbiotinylated version. The specificity of the antibody reaction is also reflected by the low optical density values obtained for 5 serum samples from uninfected donors (F88, F89, F76, F136, and F6).
To determine how well biotinylated peptides would function in a mixture when bound to streptavidin- or avidin-coated plates, two mixtures were made of the N-terminally biotinylated versions of the HIV-1 peptides TM-HIV-1 (hereabove referred to as 1a.1) and V3-nm (hereabove referred to as 1b.4), the HIV-2 peptide TM-HIV-2 (hereabove referred to as 2a), and the hepatitis C virus peptides II, IX, and XVIII. Mixture A contained each of the six biotinylated peptides at a concentration of 1 microgram per milliliter (6 micrograms per milliliter peptide, total) while in mixture B, each peptide was present at a concentration of 0.1 microgram per milliliter (0.6 microgram per milliliter peptide, total). The individual peptides were coated at a concentration of 1 microgram per milliliter. For purposes of comparison, mixtures A and B were also coated directly onto the wells of a microtiter plate. Samples from HIV-1, HIV-2, and HCV-seropositive donors were tested and compared to sera from seronegative blood donors. A cut-off absorbance value of 0.250 was used to determine whether a reaction was positive or negative. Absorbance values equal or greater than 0.250 were considered positive while absorbance values below this value were considered negative.

[2] = system: antibodies in sera from HCV-seropositive donors; experiment: ELISA with HCV antibody-positive sera (biotinylated peptides on streptavidin- or avidin-coated plates, unbiotinylated peptides coated directly); type: binding, human; details: for optical density (450 nm): Table 4B, 20-fold dilution; for PEPTIDE ELISA (O.D.): Table 12, biotinylated 20-mers
Protocol: as §1, §2, §3, §4, §5
The unbiotinylated peptides were adsorbed onto the wells of polystyrene microtiter plates at a concentration of 3 micrograms per milliliter.
The biotinylated peptides were bound at a concentration of 1 microgram per milliliter to streptavidin-coated microtiter plates. Sera known to contain antibodies to these peptides were used for the evaluation and were tested at a 20-fold dilution.
To investigate further the enhanced antibody recognition of biotinylated HCV peptides bound to streptavidin or avidin as compared to direct adsorption on plastic, the influence of peptide coating concentration was investigated. Three peptides (HCV peptides II, XI, and XVI) were coated in concentrations ranging from 10 nanograms per milliliter to 3 micrograms per milliliter in a volume of 200 microliters per microtiter plate well. For direct coating, the unbiotinylated versions of these peptides were used. The biotinylated versions of these peptides were used to coat wells to which streptavidin had previously been adsorbed. Sera known to contain antibodies to these peptides were used at a dilution of 1 to 100 to evaluate the magnitude of antibody binding.
as §6
To determine how well biotinylated peptides would function in a mixture when bound to streptavidin- or avidin-coated plates, two mixtures were made of the N-terminally biotinylated versions of the HIV-1 peptides TM-HIV-1 (hereabove referred to as 1a.1) and V3-nm (hereabove referred to as 1b.4), the HIV-2 peptide TM-HIV-2 (hereabove referred to as 2a), and the hepatitis C virus peptides II, IX, and XVIII. […]

## Leu-Arg-Lys-Ser-Arg-Arg-Phe-Ala-Gln-Ala-Leu-Pro-Val-Trp-Ala-Arg-Pro-Asp-Tyr-Asn [Peptide XVI] (LRKSRRFAQALPVWARPDYN; printed: Leu-Arg-Lys-Ser-Arg-Arg-Phe-Ala-Gln-Ala-Leu-Pro-Val-Trp-Ala-Arg-Pro-Asp-Tyr-Asn)
[1]
  optical density (450 nm): 0.067
[2]; serum 1
  optical density (450 nm): 2.435
[2]; serum 2
  optical density (450 nm): 1.239
[2]; serum 6
  optical density (450 nm): 1.595
[2]; serum 8
  optical density (450 nm): 1.599
[2]; serum 10
  optical density (450 nm): 2.847
[2]; serum 26
  optical density (450 nm): 1.522
[2]; serum 83
  optical density (450 nm): 2.221
[2]; serum 88
  optical density (450 nm): 2.519
[2]; serum 89
  optical density (450 nm): 1.530
[2]; serum 91
  optical density (450 nm): 2.169
[2]; serum 95
  optical density (450 nm): 1.484
[2]; serum 99
  optical density (450 nm): 2.045
[2]; serum 100
  optical density (450 nm): 1.637
[2]; serum 104
  optical density (450 nm): 0.942
[2]; serum 105
  optical density (450 nm): 2.186
[2]; serum 110
  optical density (450 nm): 1.484
[2]; serum 111
  optical density (450 nm): 1.465
[2]; serum 112
  optical density (450 nm): 1.084
[2]; serum 113
  optical density (450 nm): 2.535
[2]; serum 116
  optical density (450 nm): 1.918
[2]; serum 120
  optical density (450 nm): 2.332
[2]; serum 266
  optical density (450 nm): 2.262
[2]; serum 8247
  optical density (450 nm): 0.618
[2]; serum 11476
  optical density (450 nm): 2.197
[2]; serum 24758
  optical density (450 nm): 0.062
[2]; serum 0843
  PEPTIDE ELISA (O.D.): 1.444
[2]; serum 8240
  PEPTIDE ELISA (O.D.): 0.388
[2]; serum 8241
  PEPTIDE ELISA (O.D.): 2.456
[2]; serum 8242
  PEPTIDE ELISA (O.D.): 2.318
[2]; serum 8332
  PEPTIDE ELISA (O.D.): 2.130
[2]; serum 8339
  PEPTIDE ELISA (O.D.): 2.859
[2]; serum 8350
  PEPTIDE ELISA (O.D.): 2.249
[2]; serum 8377
  PEPTIDE ELISA (O.D.): 2.336
[2]; serum 8378
  PEPTIDE ELISA (O.D.): 1.602
[2]; serum 8388
  PEPTIDE ELISA (O.D.): 0.390

## Leu-Arg-Lys-Ser-Arg-Arg-Phe-Ala-Gln-Ala-Leu-Pro-Val-Trp-Ala-Arg-Pro-Asp-Tyr-Asn [Unbiotinylated peptide XVI] (LRKSRRFAQALPVWARPDYN; printed: Leu-Arg-Lys-Ser-Arg-Arg-Phe-Ala-Gln-Ala-Leu-Pro-Val-Trp-Ala-Arg-Pro-Asp-Tyr-Asn)
[1]
  optical density (450 nm): 0.063
[2]; serum 1
  optical density (450 nm): 1.038
[2]; serum 2
  optical density (450 nm): 0.616
[2]; serum 6
  optical density (450 nm): 0.100
[2]; serum 8
  optical density (450 nm): 0.329
[2]; serum 10
  optical density (450 nm): 1.033
[2]; serum 26
  optical density (450 nm): 0.053
[2]; serum 83
  optical density (450 nm): 0.912
[2]; serum 88
  optical density (450 nm): 1.187
[2]; serum 89
  optical density (450 nm): 0.495
[2]; serum 91
  optical density (450 nm): 0.197
[2]; serum 95
  optical density (450 nm): 0.109
[2]; serum 99
  optical density (450 nm): 0.814
[2]; serum 100
  optical density (450 nm): 0.474
[2]; serum 104
  optical density (450 nm): 0.205
[2]; serum 105
  optical density (450 nm): 0.313
[2]; serum 110
  optical density (450 nm): 0.762
[2]; serum 111
  optical density (450 nm): 0.193
[2]; serum 112
  optical density (450 nm): 0.253
[2]; serum 113
  optical density (450 nm): 0.833
[2]; serum 116
  optical density (450 nm): 0.058
[2]; serum 120
  optical density (450 nm): 0.964
[2]; serum 266
  optical density (450 nm): 0.712
[2]; serum 8247
  optical density (450 nm): 0.059
[2]; serum 11476
  optical density (450 nm): 0.068
[2]; serum 24758
  optical density (450 nm): 0.071
